“And” between values parts separate entries of the source, which are not always exact repeats. Equal values may be shown once.

A short description of one series: MTT cytotoxic assay. The format is cell-based, mouse. The note with it: mouse; restated; read-out: IC50 (lymphocyte cytotoxicity, restated). On the procedure: (§1) Mice were sacrificed by cervical dislocation, and spleens were collected under sterile conditions then teased through a nylon mesh. Erythrocytes were lysed. Cells were washed and resuspended at 5×10^6/ml in RPMI-1640 media supplemented with 10% FBS.
(§2) For one 96 well plate assay, 90 μl of cells, 45 μl of sample and 45 μl of RPMI-1640 media with 10% FBS were added into each well with the final volume 180 μl. The negative control wells (containing 90 μl of RPMI-1640 media with 10% FBS and 90 pt of cells), blank control (180 μl of RPMI-1640 media with 10% FBS) were also performed. Incubate plate for 48 hours at 37° C., 5% CO2 in a humidified incubator. 18 μl of MTT solution (5 mg/ml) was added for 6-7 h.
(§3) 90 μl of MTT lysis solution was added to each well followed by a further incubation at 37° C. for 6-7 h. And the absorbance was measured at 570 nm using a plate reader.
(In general: Tetrazolium assays rely on reduction of a dye to a coloured formazan, in cell work by metabolically active cells.)

A further series concerns lymphocyte. The experiment in a line: MTT cytotoxic assay. As to conditions: Lymphocyte, read-out: IC50 (concentration required to reduce the viability of cells by 50%); mouse spleen cells, 48 hours, MTT. Type of series: cell-based, mouse. On the procedure: as §1, §2, §3
Another series has as its system B lymphocyte. The experiment in a line: LPS induced B-lymphocyte proliferation ([3H]thymidine). Type of series: cell-based, mouse. As to conditions: 60 h. On the procedure:
(§4) Mice were sacrificed by cervical dislocation, and spleens were collected under sterile conditions then teased through a nylon mesh. Erythrocytes were lysed. Cells were washed and resuspended at 5×10^6/ml in RPMI-1640 media containing 10% FBS. For one 96 well plate assay, 100 pt of cells, 50 μl of sample and 50 μl of ConA/LPS were added into each well with the final volume 200 μl. The control wells were set up with 50 μl of RPMI-1640 media instead of ConA/LPS.
(§5) Plates were incubated for 48 h (ConA) or 60 h (LPS), respectively, at 37° C., 5% CO2 in a humidified incubator. In the last 8 h of incubation, 25 μl (1.9×10^10 Bq) of [^3H]thymidine was added. After plates were incubated for 48 h, the plates (ConA) were stored at −20° C., then after another 12 h, the plates (LPS) were stored at −20° C.
(§6) At the end of incubation, pulsed cells were harvested on a glass filter using a cell harvester ([…]96®, TOMTEC) and allowed to dry. Incorporation of radioactive thymidine was determined by using liquid Scintillation and Luminescence Counters (MicroBeta Trilux®, PerkinElmer).

The nature of series [1]: Acute toxicity (LD50) test in mice, intraperitoneal injection. The format is in vivo, mouse. As to conditions: mouse, in vivo, ip; mice, single intraperitoneal injection, 14 days, Bliss' method. On the procedure: Mice were single administered with LLDT-8 by intraperitoneal injection, and observed for clinical signs of toxicity immediately and the following 14 days. Necropsy was performed on all animals that died and on all survivors at the end of the 2-week study. Death was seen from the next day after treatment and reached a peak at the 2-4 day. All gross pathological changes should be recorded for each animal. There was no gender difference in survival.
LLDT-8 is much less toxic than its parent compound, […].

The subject of the next series is T lymphocyte. Nature of the series: ConA induced T-lymphocyte proliferation ([3H]thymidine). The format is cell-based, mouse. As to conditions: 48 h. On the procedure: as §4, §5, §6
The subject of series [2] is DNFB-induced mouse DTH response. The experiment in a line: DNFB-induced mouse delayed type hypersensitivity response (DTH). The format is in vivo. As to conditions: Balb/c mice. On the procedure:
Female Balb/c mice (age of 6-8 wk) were randomly divided into groups and immunized with 20 μl 0.5% DNFB solution in absolute acetone-olive oil (4:1) on each hind foot on day 0 and 1;
7-9 days after the initial immunization, mice were boosted with 10 μl 0.4% DNFB on both sides of the left ear, whereas the right ear was treated with vehicle alone;
Compounds were administered intraperitoneally (i.p.) or orally (p.o.) to the mice 1 h before DNFB booster immunization and 12 h later.
Ear swelling and other indexes were assessed 24-48 h after booster immunization.
Note: Female ICR mice (age of 6-8 wk) were immunized with 0.7% DNFB solution and boosted with 0.6% DNFB solution.

In general, LD50 refers to the dose expected to kill half of the subjects tested. The low end stands for greater toxicity, the high end for lower toxicity. Consider `CC(C)[C@]12O[C@H]1[C@@H]1O[C@]13[C@]1(O[C@H]1C[C@H]1C4=C(CC[C@@]13C)C(=O)OC4)[C@@H]2O` [LLDT-2, triptolide], for which the IC50 was 2 nM in the series “MTT cytotoxic assay”; 0.00074 µg/mL and 2 nM in the series on lymphocyte. In the series on B lymphocyte, the “ED50 for inhibiting B lymphocyte proliferation induced by LPS” value came to 2.38 ng/mL. The EC50 with B lymphocyte (Mus musculus, Lymphocyte, read-out: ED50 for inhibiting B lymphocyte proliferation induced by LPS) stood at 6.6 nM; with T lymphocyte (Mus musculus, T-lymphocyte, read-out: ED50 for inhibiting T lymphocyte proliferation induced by ConA), 6.8 nM. The same compound returned an LD50 at 14 days in series [1] of 0.5 mg/kg. In the series on T lymphocyte, the “ED50 for inhibiting T lymphocyte proliferation induced by ConA” value was determined as 2.44 ng/mL. Moreover, the “Body weight after i.p.” value in series [2] (Table 8, i.p., dosage 40 (mg/kg), control 21.9) was found to be 21.2 g. Also, the “Body weight before i.p.” value in series [2] (Table 8, i.p., dosage 40 (mg/kg), control 22.4) was 21.5 g. In series [2] (Table 8, i.p., dosage 40 (mg/kg), control 22.7 ± 2.1), the “Ear swelling X ± SD” value was 17.7 ± 5.7 mg. Also, the Right ear in series [2] (Table 8, i.p., dosage 40 (mg/kg), control 26.4) stood at 30.2 mg; in series [2] (Table 9, p.o., dosage 0.2 mg/kg, control 25.9), 24.5 mg. In addition, the Left ear in series [2] (Table 8, i.p., dosage 40 (mg/kg), control 49.1) is 47.9 mg; in series [2] (Table 9, p.o., dosage 0.2 mg/kg, control 49.3) it was 41.2 mg. In addition, the Spleen in series [2] (Table 8, i.p., dosage 40 (mg/kg), control 154.0) stood at 151.4 mg; in series [2] (Table 9, p.o., dosage 0.2 mg/kg, control 125.8), 127.0 mg. Also, the “Body weight after (i.p.)” value in series [2] (Table 9, p.o., dosage 0.2 mg/kg, control 19) is 20 g. Besides, in series [2] (Table 9, p.o., dosage 0.2 mg/kg, control 20), the “Body weight before (i.p.)” value worked out at 21 g. In series [2] (Table 9, p.o., dosage 0.2 mg/kg, control 23.4), this compound displayed an Ear swelling of 16.7 mg.

The values are drawn from patent US7626044B2, “Triptolide derivatives and their uses” (priority 2002, dated 2009).
